Molecules are shown by their SMILES.

This test addresses high molecular oligomer Aβ (Aβ1-42) (Homo sapiens, UniProt P05067). Put plainly: Influence of test compound on Aβ oligomer formation, measured by BAN50a / HRP-labeled BAN50a ELISA. The class given is biochemical. Conditions: Curcumin with various concentrations added to Aβ42 solutions; incubated at 4° C. for a whole day and night; ELISA of Example 1. A general note: In an ELISA, binding on a coated surface is turned into a signal by an enzyme label.

Chain of high molecular oligomer Aβ (Aβ1-42) (P05067 672-713): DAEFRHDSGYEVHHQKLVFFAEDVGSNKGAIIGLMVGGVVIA
Experimental: ELISA using BAN50a and HRP labeled BAN50a (quantification of oligomer Aβ) was performed by the following steps.
(1) BAN50a antibody was dissolved in coating buffer A to a concentration of 10 μg/ml (75 μl/well), added to an EIA96 well plate (high maximum binding clear plate, Greiner), and incubated in a refrigerating room (about 4° C.) for a whole day and night. (2) After washing 3 times with PBS (calcium, magnesium-free; hereinafter sometimes to be abbreviated as PBS(−)), blocking buffer B was added to 100 μL/well and the plate was stored. (3) On the day of experiment, blocking buffer B was discarded and the plate was washed twice with PBS(−), and 25 μl of buffer C was added. […] (5) The sample was incubated in a refrigerating room (about 4° C.) for a whole day and night. (6) The plate was washed 4 times with PBS(−). […] (11) Thereafter, 1 M phosphoric acid solution (75 μl/well) was added to the reacted substrate solution to terminate the reaction, and OD450 was measured by a multi-label counter (PerkinElmer). […]
(3) The tube was incubated at 4° C. for a whole day and night. (4) The reaction mixture was diluted 100-fold with buffer C (mentioned above), and measured by the aforementioned ELISA. (5) The inhibitory rate was calculated with that of the vehicle group as 100%. […]

As for `COc1cc(/C=C/C(=O)CC(=O)/C=C/c2ccc(O)c(OC)c2)ccc1O` [curcumin], the “signal of oligomer Aβ (inhibition of formation of high molecular oligomer Aβ)” value was “specifically decreased”.

Values taken from patent publication US20110104821A1, “ABeta-OLIGOMER MEASUREMENT METHOD” (priority 2008, published 2011).
